Laboratory results: ChEMBL document CHEMBL4138149, “Discovery of 1-(3-aryl-4-chlorophenyl)-3-(p-aryl)urea derivatives against breast cancer by inhibiting PI3K/Akt/mTOR and Hedgehog signalings” (Eur J Med Chem, 2017)
Active and inactive are the calls of the source. No cut-off for these calls is given here.

Key:
T47D [1] = test: Cytotoxicity against human T47D cells after 72 hrs by MTT assay; format: functional, cell-based
[2] = target: Serine/threonine-protein kinase mTOR (Homo sapiens, UniProt P42345); test: Inhibition of mTOR (unknown origin) using Ulight-4EBP1 peptide as substrate measured after 1 hr by Lance Ultra assay
[3] = target: Phosphatidylinositol 4,5-bisphosphate 3-kinase catalytic subunit alpha isoform (Homo sapiens) (UniProt P42336); test: Inhibition of PI3Kalpha (unknown origin) at 5 uM using PIP2 as substrate measured after 1 hr by Kinase-Glo luminescent assay relative to control
MCF7 = test: Cytotoxicity against human MCF7 cells after 72 hrs by MTT assay; format: functional, cell-based; settings: MCF7, 72 h
PC-3 = test: Cytotoxicity against human PC3 cells after 72 hrs by MTT assay; format: functional, cell-based; settings: PC-3, 72 h
MDA-MB-231 [4] = test: cells; settings: Homo sapiens, MDA-MB-231, 72 h
Description: Cytotoxicity against human MDA-MB-231 cells after 72 hrs by MTT assay

[5] = target: Phosphatidylinositol 4,5-bisphosphate 3-kinase catalytic subunit alpha isoform (Homo sapiens) (UniProt P42336); test: Inhibition of PI3Kalpha (unknown origin) at 50 uM using PIP2 as substrate measured after 1 hr by Kinase-Glo luminescent assay relative to control
MDA-MB-231 [6] = test: Antimigratory activity against human MDA-MB-231 cells at 5 to 10 uM after 24 hrs by tryphan blue staining based transwell assay; format: functional, cell-based
T47D [7] = test: Induction of apoptosis in human T47D cells assessed as early apoptotic cells at 5 uM after 48 hrs by Annexin-V-FITC/propidium iodide staining based flow cytometric method (reference value: 4.49%); format: functional
T47D [8] = test: Induction of apoptosis in human T47D cells assessed as live cells at 10 uM after 48 hrs by Annexin-V-FITC/propidium iodide staining based flow cytometric method (reference value: 86.2%); format: functional
T47D [9] = test: Induction of apoptosis in human T47D cells assessed as late apoptotic cells at 5 uM after 48 hrs by Annexin-V-FITC/propidium iodide staining based flow cytometric method (reference value: 9.18%); format: functional
MDA-MB-231 [10] = test: Induction of apoptosis in human MDA-MB-231 cells assessed as live cells at 10 uM after 48 hrs by Annexin-V-FITC/propidium iodide staining based flow cytometric method (reference value: 94.3%); format: functional
MDA-MB-231 [11] = test: Inhibition of Hedgehog signaling in human MDA-MB-231 cells assessed as reduction in SAG-induced elevation of Gli1 expression at 5 to 10 uM after 48 hrs by Western blot analysis; format: cell-based
MDA-MB-231 [12] = test: Inhibition of PI3K/Akt/mTOR signaling in human MDA-MB-231 cells assessed as reduction in phosphorylation of S6K at Thr389 residue at 5 uM measured within 4 hrs by Western blot analysis; format: cell-based
T47D [13] = test: Induction of apoptosis in human T47D cells assessed as live cells at 5 uM after 48 hrs by Annexin-V-FITC/propidium iodide staining based flow cytometric method (reference value: 86.2%); format: functional
MDA-MB-231 [14] = test: Induction of apoptosis in human MDA-MB-231 cells assessed as early apoptotic cells at 5 uM after 48 hrs by Annexin-V-FITC/propidium iodide staining based flow cytometric method (reference value: 0.634%); format: functional
MDA-MB-231 [15] = test: Induction of apoptosis in human MDA-MB-231 cells assessed as late apoptotic cells at 10 uM after 48 hrs by Annexin-V-FITC/propidium iodide staining based flow cytometric method (reference value: 5%); format: functional
T47D [16] = test: Induction of apoptosis in human T47D cells assessed as necrotic cells at 5 uM after 48 hrs by Annexin-V-FITC/propidium iodide staining based flow cytometric method (reference value: 0.135%); format: functional
MDA-MB-231 [17] = test: Induction of apoptosis in human MDA-MB-231 cells assessed as necrotic cells at 10 uM after 48 hrs by Annexin-V-FITC/propidium iodide staining based flow cytometric method (reference value: 0.086%); format: functional
MDA-MB-231 [18] = test: Induction of apoptosis in human MDA-MB-231 cells assessed as necrotic cells at 5 uM after 48 hrs by Annexin-V-FITC/propidium iodide staining based flow cytometric method (reference value: 0.086%); format: functional
MDA-MB-231 [19] = test: Inhibition of PI3K/Akt/mTOR signaling in human MDA-MB-231 cells assessed as reduction in phosphorylation of S6K at Thr412 residue at 5 uM measured within 4 hrs by Western blot analysis; format: cell-based
T47D [20] = test: Induction of apoptosis in human T47D cells assessed as early apoptotic cells at 10 uM after 48 hrs by Annexin-V-FITC/propidium iodide staining based flow cytometric method (reference value: 4.49%); format: functional
MDA-MB-231 [21] = test: Inhibition of PI3K/Akt/mTOR signaling in human MDA-MB-231 cells assessed as reduction in AKT phosphorylation at Ser473 residue at 5 uM by Western blot analysis; format: cell-based; settings: TDE = time-dependent effect
T47D [22] = test: Induction of apoptosis in human T47D cells assessed as necrotic cells at 10 uM after 48 hrs by Annexin-V-FITC/propidium iodide staining based flow cytometric method (reference value: 0.135%); format: functional
MDA-MB-231 [23] = test: Induction of apoptosis in human MDA-MB-231 cells assessed as late apoptotic cells at 5 uM after 48 hrs by Annexin-V-FITC/propidium iodide staining based flow cytometric method (reference value: 5%); format: functional
MDA-MB-231 [24] = test: Induction of apoptosis in human MDA-MB-231 cells assessed as live cells at 5 uM after 48 hrs by Annexin-V-FITC/propidium iodide staining based flow cytometric method (reference value: 94.3%); format: functional
T47D [25] = test: Induction of apoptosis in human T47D cells assessed as late apoptotic cells at 10 uM after 48 hrs by Annexin-V-FITC/propidium iodide staining based flow cytometric method (reference value: 9.18%); format: functional
MDA-MB-231 [26] = test: Induction of apoptosis in human MDA-MB-231 cells assessed as early apoptotic cells at 10 uM after 48 hrs by Annexin-V-FITC/propidium iodide staining based flow cytometric method (reference value: 0.634%); format: functional

Chain of Phosphatidylinositol 4,5-bisphosphate 3-kinase catalytic subunit alpha isoform (Homo sapiens) (P42336 whole entry, canonical isoform): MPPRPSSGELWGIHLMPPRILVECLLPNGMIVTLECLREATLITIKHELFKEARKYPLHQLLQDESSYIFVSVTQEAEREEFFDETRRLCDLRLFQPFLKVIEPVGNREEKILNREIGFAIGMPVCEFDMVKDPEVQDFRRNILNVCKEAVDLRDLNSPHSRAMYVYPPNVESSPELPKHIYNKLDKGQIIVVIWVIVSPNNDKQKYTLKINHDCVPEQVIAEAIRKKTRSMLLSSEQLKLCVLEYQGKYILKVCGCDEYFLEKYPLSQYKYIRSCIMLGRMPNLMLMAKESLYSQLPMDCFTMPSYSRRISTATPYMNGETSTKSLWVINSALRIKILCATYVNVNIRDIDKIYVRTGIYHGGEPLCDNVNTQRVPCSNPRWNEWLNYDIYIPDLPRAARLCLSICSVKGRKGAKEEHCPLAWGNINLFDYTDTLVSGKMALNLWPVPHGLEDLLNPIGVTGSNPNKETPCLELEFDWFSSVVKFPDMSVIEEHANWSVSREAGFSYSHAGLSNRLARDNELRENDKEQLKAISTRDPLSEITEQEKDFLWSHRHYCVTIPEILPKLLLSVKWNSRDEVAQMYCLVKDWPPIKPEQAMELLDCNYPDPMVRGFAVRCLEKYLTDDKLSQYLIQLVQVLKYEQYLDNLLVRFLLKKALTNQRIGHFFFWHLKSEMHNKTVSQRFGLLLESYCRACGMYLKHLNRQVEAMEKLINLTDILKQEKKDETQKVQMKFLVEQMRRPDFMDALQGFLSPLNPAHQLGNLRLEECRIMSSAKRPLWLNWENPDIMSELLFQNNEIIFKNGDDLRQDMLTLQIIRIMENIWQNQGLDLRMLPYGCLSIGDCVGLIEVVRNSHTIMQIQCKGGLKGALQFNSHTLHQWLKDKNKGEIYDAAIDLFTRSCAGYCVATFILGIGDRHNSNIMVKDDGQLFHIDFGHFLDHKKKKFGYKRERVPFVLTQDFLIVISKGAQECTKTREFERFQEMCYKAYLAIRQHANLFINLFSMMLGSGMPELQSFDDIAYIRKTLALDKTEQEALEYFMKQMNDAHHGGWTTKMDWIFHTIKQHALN

## O=C(Nc1ccc(-c2nc(N3CCOCC3)nc(N3CCOCC3)n2)cc1)Nc1ccc(Cl)c(-c2ccccc2)c1
T47D [1]
  IC50: 15.4 µM
[2]
  IC50: 3.45 µM
[3]
  inhibition: 57.1%

## CS(=O)(=O)c1ccc(C(=O)Nc2ccc(Cl)c(-c3ccccn3)c2)c(Cl)c1 [VISMODEGIB]
MCF7
  IC50: > 50 µM
PC-3
  IC50: > 50 µM
T47D [1]
  IC50: 41.3 µM
MDA-MB-231 [4]
  IC50: > 50 µM

## O=C(Nc1ccc(-c2ccnc(N3CCOCC3)n2)cc1)Nc1ccc(Cl)c(-c2cccs2)c1
T47D [1]
  IC50: 24.3 µM

## O=C(Nc1ccc(-c2cc(N3CCOCC3)nc(N3CCOCC3)n2)cc1)Nc1ccc(Cl)c(-c2ccsc2)c1
T47D [1]
  IC50: 18.7 µM

## O=C(Nc1ccc(-c2cc(N3CCOCC3)nc(N3CCOCC3)n2)cc1)Nc1ccc(Cl)c(-c2ccncc2)c1
MCF7
  IC50: 8.2 µM
PC-3
  IC50: 9.28 µM
T47D [1]
  IC50: 7.41 µM
[2]
  IC50: 0.26 µM
MDA-MB-231 [4]
  IC50: 7.32 µM
[3]
  inhibition: 9.37%

## O=C(Nc1ccc(-c2ccnc(N3CCOCC3)n2)cc1)Nc1ccc(Cl)c(-c2ccncc2)c1
MCF7
  IC50: 19.2 µM
PC-3
  IC50: 17.7 µM
T47D [1]
  IC50: 16 µM
MDA-MB-231 [4]
  IC50: 18.9 µM

## O=C(Nc1ccc(-c2nc(N3CCOCC3)nc(N3CCOCC3)n2)cc1)Nc1ccc(Cl)c(-c2ccccn2)c1
T47D [1]
  IC50: 14.2 µM
[2]
  IC50: 0.09 µM
[3]
  inhibition: 6.8%

## O=C(Nc1ccc(-c2ccnc(N3CCOCC3)n2)cc1)Nc1ccc(Cl)c(-c2ccccn2)c1
T47D [1]
  IC50: 23.1 µM

## O=C(Nc1ccc(-c2nc(N3CCOCC3)nc(N3CCOCC3)n2)cc1)Nc1ccc(Cl)c(-c2cccnc2)c1
MCF7
  IC50: 5.75 µM
PC-3
  IC50: 5.37 µM
T47D [1]
  IC50: 9.38 µM
[2]
  IC50: 0.2 µM
MDA-MB-231 [4]
  IC50: 7.82 µM
[3]
  inhibition: 26.6%

## Nc1cc(C(F)(F)F)c(-c2cc(N3CCOCC3)nc(N3CCOCC3)n2)cn1 [BUPARLISIB]
MCF7
  IC50: 11.1 µM
PC-3
  IC50: 5.34 µM
T47D [1]
  IC50: 6.92 µM
MDA-MB-231 [4]
  IC50: 1.88 µM

## O=C(Nc1ccc(-c2cc(N3CCOCC3)nc(N3CCOCC3)n2)cc1)Nc1ccc(Cl)c(-c2cccnc2)c1
MCF7
  IC50: 9.15 µM
PC-3
  IC50: 15.5 µM
T47D [1]
  IC50: 3.96 µM
[2]
  IC50: 0.33 µM
MDA-MB-231 [4]
  IC50: 8.49 µM
[3]
  inhibition: 35.1%

## CS(=O)(=O)c1ccc(C(=O)Nc2ccc(-c3ccnc(N4CCOCC4)n3)cc2)c(Cl)c1
T47D [1]
  IC50: 25 µM

## O=C(Nc1ccc(-c2cc(N3CCOCC3)nc(N3CCOCC3)n2)cc1)Nc1ccc(Cl)c(-c2ccccn2)c1
T47D [1]
  IC50: 35.1 µM

## O=C(Nc1ccc(-c2ccnc(N3CCOCC3)n2)cc1)Nc1ccc(Cl)c(-c2ccsc2)c1
T47D [1]
  IC50: 22.6 µM

## O=C(Nc1ccc(-c2nc(N3CCOCC3)nc(N3CCOCC3)n2)cc1)Nc1ccc(Cl)c(-c2ccsc2)c1
T47D [1]
  IC50: 23.2 µM

## O=C(Nc1ccc(-c2ccnc(N3CCOCC3)n2)cc1)Nc1ccc(Cl)c(-c2cccnc2)c1
MCF7
  IC50: 16.8 µM
PC-3
  IC50: 11.8 µM
T47D [1]
  IC50: 4.11 µM
[2]
  IC50: > 10 µM
MDA-MB-231 [4]
  IC50: 14.5 µM
[5]
  inhibition: 30%

## CS(=O)(=O)c1ccc(C(=O)Nc2ccc(-c3cc(N4CCOCC4)nc(N4CCOCC4)n3)cc2)c(Cl)c1
T47D [1]
  IC50: 22.3 µM

## O=C(Nc1ccc(-c2cc(N3CCOCC3)nc(N3CCOCC3)n2)cc1)Nc1ccc(Cl)c(-c2ccccc2)c1
T47D [1]
  IC50: 15.6 µM

## O=C(Nc1ccc(-c2cc(N3CCOCC3)nc(N3CCOCC3)n2)cc1)Nc1ccc(Cl)c(-c2cccs2)c1
T47D [1]
  IC50: 25.4 µM

## O=C(Nc1ccc(-c2nc(N3CCOCC3)nc(N3CCOCC3)n2)cc1)Nc1ccc(Cl)c(-c2cccs2)c1
T47D [1]
  IC50: 44.1 µM

## CS(=O)(=O)c1ccc(C(=O)Nc2ccc(-c3nc(N4CCOCC4)nc(N4CCOCC4)n3)cc2)c(Cl)c1
T47D [1]
  IC50: 17.5 µM

## O=C(Nc1ccc(-c2ccnc(N3CCOCC3)n2)cc1)Nc1ccc(Cl)c(-c2ccccc2)c1
T47D [1]
  IC50: 44.6 µM

## O=C(Nc1ccc(-c2nc(N3CCOCC3)nc(N3CCOCC3)n2)cc1)Nc1ccc(Cl)c(-c2ccncc2)c1
MDA-MB-231 [6]
  Activity: Active
MCF7
  IC50: 7.61 µM
T47D [7]
  Activity: 8.49%
T47D [8]
  Activity: 13.9%
T47D [9]
  Activity: 10.5%
MDA-MB-231 [10]
  Activity: 7.01%
PC-3
  IC50: 11 µM
MDA-MB-231 [11]
  inhibition: Active
T47D [1]
  IC50: 7.94 µM
[2]
  IC50: 0.18 µM
MDA-MB-231 [12]
  inhibition: Active
T47D [13]
  Activity: 80.8%
MDA-MB-231 [14]
  Activity: 18.7%
MDA-MB-231 [15]
  Activity: 49.9%
MDA-MB-231 [4]
  IC50: 3.61 µM
T47D [16]
  Activity: 0.132%
MDA-MB-231 [17]
  Activity: 0.595%
[3]
  inhibition: 16.3%
MDA-MB-231 [18]
  Activity: 1.17%
MDA-MB-231 [19]
  inhibition: Active
T47D [20]
  Activity: 75.1%
MDA-MB-231 [21]
  inhibition: Tde
T47D [22]
  Activity: 0.347%
MDA-MB-231 [23]
  Activity: 28.6%
MDA-MB-231 [24]
  Activity: 51.6%
T47D [25]
  Activity: 10.6%
MDA-MB-231 [26]
  Activity: 42.5%
